Experimental data reported in ChEMBL document CHEMBL1142279, “Optimization of 2,3,5-trisubstituted pyridine derivatives as potent allosteric Akt1 and Akt2 inhibitors” (Bioorg Med Chem Lett, 2008).
pIC50: −log10 of the molar value.

Assays:
[1] = biological target: RAC-alpha serine/threonine-protein kinase (Homo sapiens) (UniProt P31749); assay: Inhibition of Akt1 in human C33a cells; type: cell-based
[2] = Inhibition of SGK
[3] = biological target: RAC-beta serine/threonine-protein kinase (Homo sapiens) (UniProt P31751); assay: Inhibition of Akt2 in human C33a cells; type: cell-based
Sequence of RAC-beta serine/threonine-protein kinase (Homo sapiens) (P31751 whole entry): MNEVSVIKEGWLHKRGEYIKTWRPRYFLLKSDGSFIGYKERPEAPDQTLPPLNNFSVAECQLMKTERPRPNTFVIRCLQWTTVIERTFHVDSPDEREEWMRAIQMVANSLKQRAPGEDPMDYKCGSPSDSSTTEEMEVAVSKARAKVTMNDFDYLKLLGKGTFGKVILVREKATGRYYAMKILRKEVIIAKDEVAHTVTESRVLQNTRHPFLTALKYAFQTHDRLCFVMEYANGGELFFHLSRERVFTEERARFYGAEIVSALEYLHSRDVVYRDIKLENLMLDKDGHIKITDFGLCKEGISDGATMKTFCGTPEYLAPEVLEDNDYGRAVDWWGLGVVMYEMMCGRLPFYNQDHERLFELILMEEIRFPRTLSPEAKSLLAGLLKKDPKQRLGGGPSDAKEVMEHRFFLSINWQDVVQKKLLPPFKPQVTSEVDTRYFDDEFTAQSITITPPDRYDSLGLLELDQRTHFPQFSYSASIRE

[4] = biological target: RAC-beta serine/threonine-protein kinase (Homo sapiens) (UniProt P31751); assay: Inhibition of human recombinant Akt2
[5] = biological target: RAC-alpha serine/threonine-protein kinase (Homo sapiens) (UniProt P31749); assay: Inhibition of human recombinant Akt1
[6] = biological target: RAC-gamma serine/threonine-protein kinase (Homo sapiens) (UniProt Q9Y243); assay: Inhibition of human recombinant Akt3
Sequence of RAC-gamma serine/threonine-protein kinase (Homo sapiens) (Q9Y243 whole entry): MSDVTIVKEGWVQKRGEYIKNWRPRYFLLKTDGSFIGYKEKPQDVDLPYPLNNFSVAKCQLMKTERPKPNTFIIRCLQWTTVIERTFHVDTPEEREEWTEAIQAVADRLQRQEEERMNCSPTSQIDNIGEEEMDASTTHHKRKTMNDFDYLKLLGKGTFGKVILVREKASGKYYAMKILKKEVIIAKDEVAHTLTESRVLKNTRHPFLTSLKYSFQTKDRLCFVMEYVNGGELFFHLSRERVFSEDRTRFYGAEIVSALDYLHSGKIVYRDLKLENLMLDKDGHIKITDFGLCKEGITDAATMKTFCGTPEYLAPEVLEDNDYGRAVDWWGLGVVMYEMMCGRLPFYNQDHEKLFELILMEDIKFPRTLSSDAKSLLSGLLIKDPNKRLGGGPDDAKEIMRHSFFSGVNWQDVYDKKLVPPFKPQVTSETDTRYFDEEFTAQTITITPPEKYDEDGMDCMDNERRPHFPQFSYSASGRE

[7] = Inhibition of PKC
[8] = Half life in dog at 0.25 mg/kg, iv; type: ADME, organism-based, Canis lupus familiaris; parameters: dose 0.25 mg/kg, route intravenous; conditions: in vivo
[9] = Inhibition of PKA
[10] = Volume of distribution at steady state in dog at 0.25 mg/kg, iv; type: ADME, organism-based, Canis lupus familiaris; parameters: dose 0.25 mg/kg, route intravenous; conditions: in vivo, read-out: Vdss
[11] = Clearance in dog at 0.25 mg/kg, iv; type: ADME, organism-based, Canis lupus familiaris; parameters: dose 0.25 mg/kg, route intravenous; conditions: in vivo
[12] = biological target: Protein kinase C alpha type (Homo sapiens) (UniProt P17252); assay: Inhibition of PKCalpha

Sequence of RAC-alpha serine/threonine-protein kinase (Homo sapiens) (P31749 whole entry): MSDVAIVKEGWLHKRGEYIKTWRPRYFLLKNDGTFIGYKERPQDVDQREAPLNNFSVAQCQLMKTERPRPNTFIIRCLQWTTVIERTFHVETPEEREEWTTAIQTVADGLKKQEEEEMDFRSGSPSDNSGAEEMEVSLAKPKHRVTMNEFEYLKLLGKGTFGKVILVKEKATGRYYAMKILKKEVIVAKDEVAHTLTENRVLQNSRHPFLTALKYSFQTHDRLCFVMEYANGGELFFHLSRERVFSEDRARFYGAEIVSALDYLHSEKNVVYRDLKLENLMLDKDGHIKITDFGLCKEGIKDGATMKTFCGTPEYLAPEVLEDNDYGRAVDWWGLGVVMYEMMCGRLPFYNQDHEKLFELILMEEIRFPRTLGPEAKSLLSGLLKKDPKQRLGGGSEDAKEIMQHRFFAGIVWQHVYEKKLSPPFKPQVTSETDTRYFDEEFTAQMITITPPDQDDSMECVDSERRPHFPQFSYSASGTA

Row | SMILES | Activity [1] [nM] | pIC50 [2] | Activity [3] [nM] | Activity [4] [nM] | Activity [5] [nM] | pIC50 [7] | half-life [8] [h] | pIC50 [9] | Vd [10] [L/kg] | clearance [11] [mL/min/kg] | pIC50 [12] | Activity [6] [µM]
1 | Nc1ncnc2c1cnn2C1CCN(Cc2ccc(-c3ncc(-c4ncon4)cc3-c3ccccc3)cc2)CC1 | 288 | < 4.30 | 1060 | 121 | 180 |  |  |  |  |  |  | 
2 | Nc1nnc(-c2cnc(-c3ccc(CNCCC(=O)c4ccccc4N)cc3)c(-c3ccccc3)c2)s1 | 618 |  | 472 | 30 | 114 |  |  |  |  |  |  | 
3 | Nc1ncnc2c1cnn2C1CCN(Cc2ccc(-c3ncc(-c4ncccn4)cc3-c3ccccc3)cc2)CC1 | 1950 | < 4.30 | 3460 | 62 | 306 |  |  |  |  |  |  | 
4 | Nc1nnc(-c2cnc(-c3ccc(CN4CCC(n5cc(-c6ccccn6)cn5)CC4)cc3)c(-c3ccccc3)c2)s1 | 1350 | < 4.30 | 1350 | 90 | 214 |  |  |  |  |  |  | 
5 | Nc1ncnc2c1cnn2C1CCN(Cc2ccc(-c3ncc(-c4nc[nH]n4)cc3-c3ccccc3)cc2)CC1 | 890 | < 4.30 | 666 | 101 | 182 |  |  |  |  |  |  | 
6 | N#Cc1cnc(-c2ccc(CN3CCC(n4c(=O)[nH]c5ccccc54)CC3)cc2)c(-c2ccccc2)c1 | > 50000 |  | > 50000 | 3140 | 762 |  |  |  |  |  |  | > 50
7 | Nc1nnc(-c2cnc(-c3ccc(CN4CCC(n5cc(-c6cnccn6)cn5)CC4)cc3)c(-c3ccccc3)c2)s1 | 1380 | < 4.30 | 2030 | 51 | 172 |  |  |  |  |  |  | 
8 | Nc1nnc(-c2cnc(-c3ccc(CN4CCC(c5n[nH]c(-c6ccccn6)n5)CC4)cc3)c(-c3ccccc3)c2)s1 | 516 | < 4.30 | 330 | 22 | 85 |  |  |  |  |  |  | 
9 | O=c1[nH]c2ccccc2n1C1CCN(Cc2ccc(-c3ncc(-c4nnn[nH]4)cc3-c3ccccc3)cc2)CC1 | > 50000 |  | > 50000 | 150 | 273 |  |  |  |  |  |  | > 50

Second part, led by results:

Row | Activity [1] [nM] | pIC50 [2] | Activity [3] [nM] | Activity [4] [nM] | Activity [5] [nM] | pIC50 [7] | half-life [8] [h] | pIC50 [9] | Vd [10] [L/kg] | clearance [11] [mL/min/kg] | pIC50 [12] | SMILES | Activity [6] [µM]
10 | 407 | < 4.30 | 153 | 38 | 123 |  |  |  |  |  |  | Nc1nnc(-c2cnc(-c3ccc(CN4CCC(c5cc(-c6ccncc6)[nH]n5)CC4)cc3)c(-c3ccccc3)c2)s1 | 
11 | 12600 | < 4.30 | 3960 | 73 | 434 |  |  |  |  |  |  | Nc1nnc(-c2cnc(-c3ccc(CN4CCC(n5c(=O)[nH]c6ncccc65)CC4)cc3)c(-c3ccccc3)c2)s1 | 
12 | > 50000 |  | > 50000 | 105 | 210 |  |  |  |  |  |  | Nc1ncnc2c1ncn2C1CCN(Cc2ccc(-c3ncc(-c4nnn[nH]4)cc3-c3ccccc3)cc2)CC1 | > 50
13 | 10000 |  | 8110 | 370 | 1630 |  |  |  |  |  |  | Nc1ncnc2c1cnn2C1CCN(Cc2ccc(-c3ncc(-c4ccccn4)cc3-c3ccccc3)cc2)CC1 | 
14 | 621 | < 4.30 | 416 | 22 | 126 | < 5.00 | 3.62 | < 5.00 | 0.41 | 1.37 | < 5.00 | Nc1nnc(-c2cnc(-c3ccc(CN4CCC(n5ncc6c(N)ncnc65)CC4)cc3)c(-c3ccccc3)c2)s1 | 
15 | 1650 | < 4.30 | 3240 | 64 | 264 |  |  |  |  |  |  | Nc1ncnc2c1cnn2C1CCN(Cc2ccc(-c3ncc(-c4nccs4)cc3-c3ccccc3)cc2)CC1 | 
16 | 734 | < 4.30 | 300 | 28 | 95 |  |  |  |  |  |  | Nc1nnc(-c2cnc(-c3ccc(CN4CCC(c5cc(-c6ccccn6)[nH]n5)CC4)cc3)c(-c3ccccc3)c2)s1 | 
